According to PMC9043391, “Isolation and biological activities of compounds from Rumex vesicarius L. and their use as a component of a synbiotic preparation” (Food Chemistry: X, 2022):
Marks after values point to notes of the source that are not given here. Square brackets hold non-standard residues; d marks the D form. Peptide text beside a SMILES is read from it. * marks the point of attachment. Sta = CC(C)C[C@H](N)[C@@H](O)CC(=O)O; Isovaleryl = CC(C)CC(=O)*

Columns and labels:
[1] = test system: Escherichia coli Nissle 1917 (EcN); assay: Growth kinetic curves of Escherichia coli Nissle 1917 (OD600, DMFit); type: cell-based; conditions: for Effect on lag phase of EcN compared with control: 2 mg/mL, in words
Protocol: (§1) Escherichia coli K12 (K12) was chosen as a representative enteric species, and E. coli Nissle 1917 (EcN) was chosen as a representative probiotic strain. Both strains were obtained from the bacterial strain collection in Food Microbiology Laboratory (Dairy department, Faculty of Agriculture, Mansoura University, Egypt). An overnight culture of both strains was activated in nutrient broth (NB) (BD Difco™, Bacton, Dickinson and Company Sparks, MD, USA) at 37 °C for 16–18 h. The culture was diluted on test days in buffered peptone water to a final concentration of 1.5 × 10^8 colony forming units (CFU)/mL cell counts were assessed by pour plate method, one mL of a suitable dilution was incubated on nutrient agar at 37 °C for 24 h. colonies were then counted and converted to CFU/mL ([Dawood et al., 2021]).
An aliquot (100 µL) of EcN was inoculated into NB (BD Difco ^TM) and incubated at 37 °C for 24 h. An overnight culture of EcN was further streaked onto nutrient agar and incubated for 48 h at 37 °C. The EcN culture was diluted in sterile saline solution (0.85%) on the day of assay to adjust the final cell count to 1.5 × 10^8 CFU/mL. Bacterial growth was determined in NB supplemented with individual pure compounds (1–8) or extracts (methanol, petroleum ether, and ethyl acetate) at 2 mg/mL. Growth kinetics of EcN were monitored spectrophotometrically by OD600 every of 60 min at 37 °C ([Pacheco-Ordaz et al., 2018]). DMFit ver. 2.1 an Excel add-in was used to determine: doubling time (Td), lag time, maximum growth at the stationary phase (Y max, OD), and specific growth rate (µmax, OD).

[2] = test system: Escherichia coli Nissle 1917 (EcN); assay: Prebiotic index of EcN (CFU on sample vs CFU on glucose); type: cell-based; conditions: 2 mg/mL, 24 h, ratio to growth on 2 mg/mL glucose
Protocol: as §1
Prebiotic index (PI) was estimated as previously described ([Dawood et al., 2021]). E. coli Nissle 1917 was used as the representative probiotic strain. Aliquots containing 10^7 CFU of an overnight culture of EcN were inoculated into separate tubes containing NB. Two mg/mL of extracts or isolated phenolic compounds or 2 mg/mL of glucose as a positive control was added, and growth of EcN was assessed as the number of viable colonies forming units (CFU)/mL after incubation for 24 h using the pour method on nutrient agar, followed by incubation at 37 °C for 24 h. PI is the ratio of growth of EcN in NB supplemented with individual compounds or extracts to growth on glucose. A PI greater than one indicates a positive influence on the growth of EcN. PI was calculated as follows:(1) PI=CFUofEcNinPhenolicCompounds(asprebiotic)/CFUofECNinglucose(ascontrolcarbohydrate)

[3] = target: angiotensin-converting enzyme (ACE) (Homo sapiens, UniProt P12821); assay: Angiotensin-converting enzyme inhibitory activity (HHL cleavage, 228 nm); type: biochemical; conditions: whey of yogurt enriched at 2 mg/mL, after 7 days of refrigerated storage; in words
angiotensin-converting enzyme (ACE), sequence (P12821 30-1306, species assumed): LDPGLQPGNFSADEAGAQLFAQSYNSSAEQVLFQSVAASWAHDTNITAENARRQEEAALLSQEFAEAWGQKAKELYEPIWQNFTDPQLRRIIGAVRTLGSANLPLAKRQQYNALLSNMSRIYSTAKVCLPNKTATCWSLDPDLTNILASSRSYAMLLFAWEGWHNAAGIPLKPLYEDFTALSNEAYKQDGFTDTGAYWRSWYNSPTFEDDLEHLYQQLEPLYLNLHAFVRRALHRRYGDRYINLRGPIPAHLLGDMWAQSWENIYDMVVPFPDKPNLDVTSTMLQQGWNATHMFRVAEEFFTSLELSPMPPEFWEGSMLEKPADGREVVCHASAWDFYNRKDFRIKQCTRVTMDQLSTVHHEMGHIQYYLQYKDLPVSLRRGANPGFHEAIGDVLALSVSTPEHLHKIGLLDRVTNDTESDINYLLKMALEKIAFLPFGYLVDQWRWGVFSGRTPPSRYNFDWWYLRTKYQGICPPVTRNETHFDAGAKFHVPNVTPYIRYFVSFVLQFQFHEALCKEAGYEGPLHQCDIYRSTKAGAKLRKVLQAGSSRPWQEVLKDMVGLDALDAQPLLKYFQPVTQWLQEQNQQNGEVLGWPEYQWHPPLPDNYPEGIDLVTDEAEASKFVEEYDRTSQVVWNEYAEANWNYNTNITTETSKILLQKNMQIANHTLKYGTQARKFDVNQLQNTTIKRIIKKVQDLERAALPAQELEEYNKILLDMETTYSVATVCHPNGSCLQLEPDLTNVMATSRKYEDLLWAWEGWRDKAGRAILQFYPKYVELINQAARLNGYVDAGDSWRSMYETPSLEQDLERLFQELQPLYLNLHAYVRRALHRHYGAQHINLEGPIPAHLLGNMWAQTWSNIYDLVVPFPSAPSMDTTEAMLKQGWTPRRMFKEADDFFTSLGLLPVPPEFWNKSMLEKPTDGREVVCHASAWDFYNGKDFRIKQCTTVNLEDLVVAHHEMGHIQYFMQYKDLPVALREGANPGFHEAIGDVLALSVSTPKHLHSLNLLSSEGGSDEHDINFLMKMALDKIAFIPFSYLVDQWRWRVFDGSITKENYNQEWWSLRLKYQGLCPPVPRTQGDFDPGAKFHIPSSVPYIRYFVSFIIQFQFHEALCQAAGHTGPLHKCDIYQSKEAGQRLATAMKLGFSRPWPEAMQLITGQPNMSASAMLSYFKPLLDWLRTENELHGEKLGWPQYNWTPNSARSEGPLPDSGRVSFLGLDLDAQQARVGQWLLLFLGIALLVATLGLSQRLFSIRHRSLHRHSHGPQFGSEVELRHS
Protocol: Lyophilized aqueous extract (whey) obtained from yogurt enriched with extracts or individual compounds at 2 mg/mL was used. […] The method depends on hipuryl-histdylleucine (HHL) cleavage to hippuric acid by ACE. HHL (3.8 mM) was diluted in 0.1 M borate buffer (200 μL; pH 8.3), including 0.3 M NaCl, then 35 μL of sample solution (2 mg/mL) was added, and the mixture incubated for 10 min at 37 °C. The reaction was initiated by adding 20 μL of ACE solution (0.1 U/mL in borate buffer) and allowed to proceed for 30 min at 37 °C. HCl (250 μL of a 1 M solution) was then added to stop the reaction. […] Subsequently, 1 mL of supernatant (ethyl acetate) was collected in a new tube and placed in boiling water for 30 min to eliminate the solvent. The remaining hippuric acid residue was dissolved in 1 mL of distilled water, and absorbance was measured at 228 nm using distilled water as a blank. All samples were analyzed in triplicate. Captopril (0.008 mg/mL) was used as a positive control, and lyophilized aqueous extract (whey) obtained from plain yogurt was used as a negative control. The calculation of ACE inhibitory activity was determined as follows:(3) ACE inhibition%=[1-(A-C)/(B-D)]×100 where A is absorbance with the sample, HHL, and ACE; B is absorbance with HHL and ACE without sample; C is absorbance with sample and HHL; D is absorbance with HHL without sample and ACE.

[4] = test system: E. coli Nissle 1917 (EcN) versus Escherichia coli K12; assay: Prebiotic activity score (EcN growth relative to enteric E. coli K12, vs glucose); type: cell-based; conditions: EcN vs E. coli K12, 24 h at 37 °C
Protocol: as §1
Log E is log of CFU/mL of K12 at zero time (E0) and 24 h (E24) of culture on glucose and pure compounds. Individual pure compounds or extracts that induce a high value of Pscore improve EcN growth compared with the growth rate of EcN on glucose. Support of K12 growth by pure compounds or extracts theoretically should be low compared to growth of K12 on glucose.

[5] = target: pepsin (Homo sapiens, UniProt P0DJD8); assay: Protease (pepsin) inhibition with bovine serum albumin substrate; type: biochemical; conditions: samples at 2 mg/mL; Pepstatin A 0.5 µg/mL positive control; in words
pepsin, sequence (P0DJD8 63-388): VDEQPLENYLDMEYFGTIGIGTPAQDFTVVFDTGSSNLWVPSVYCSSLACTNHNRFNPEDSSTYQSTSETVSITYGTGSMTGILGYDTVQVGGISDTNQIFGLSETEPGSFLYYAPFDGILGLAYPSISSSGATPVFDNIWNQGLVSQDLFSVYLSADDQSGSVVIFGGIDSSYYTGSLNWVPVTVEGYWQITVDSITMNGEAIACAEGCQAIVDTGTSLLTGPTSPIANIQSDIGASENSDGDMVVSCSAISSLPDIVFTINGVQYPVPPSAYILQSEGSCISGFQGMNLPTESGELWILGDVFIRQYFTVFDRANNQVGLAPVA
Protocol: Protease used the protocol of [Hu et al. (2013]). Briefly, 100 µL of pepsin solution (1 mg pepsin/1 mL of 0.02 N HCl) was mixed with 0.5 mL of 10 mg/mL bovine serum albumin and 0.5 mL of extracts or pure compounds (2 mg/mL) and incubated for 30 min at 37 °C. TCA (0.9 mL 5%) was added to stop the reaction, followed by centrifugation (4800g, 15 min). Protein concentration in the final supernatant was determined using Coomassie (Bradford) protein assay kits. Pepstatin A (0. 5 µg/mL) was used as a positive control.

[6] = test system: α-amylase; assay: α-amylase inhibition (starch, dinitrosalicylic acid, 540 nm); type: biochemical; conditions: samples at 2 mg/mL; acarbose 5 µg/mL positive control; in words
Protocol: α-amylase inhibition was determined as previously reported ([Hu et al., 2013]). Briefly, 200 µL of 20 mM sodium phosphate buffer (pH 7.0 with 6 mM NaCl), including α-amylase (10 U/mL) and 200 µL of sample (2 mg/mL), was incubated at 37 °C for 45 min. A potato starch solution (400 µL; 0.5%) was added to each sample and incubated at 37 °C in a shaking water bath (100 rpm) for 10 min. The enzymatic reaction was stopped with dinitrosalicylic acid color reagent. Screw cape tubes were transferred to a water bath at 100 °C for 10 min, then cooled to room temperature. Finally, samples were diluted with 3 mL of deionized water (3 mL). Absorbance of diluted reaction mixtures was measured spectrophotometrically at 540 nm (Spectro UV–VIS Auto, UV2602, Labomed, USA). Test and control samples were compared and expressed as percentage inhibition of α-amylase. Acarbose (5 µg/mL) was used as a positive control, and samples in buffer without test compounds or extracts were included as negative controls.

[7] = EcN in nutrient broth supplemented at 2 mg/mL, 37 °C, n = 3

| SMILES | Lag (min) [1, 7] | Prebiotic index (PI) [2] | Effect on lag phase of EcN compared with control [1] | further results |
| --- | --- | --- | --- | --- |
| CC(=O)c1c(C)cc2cccc(O)c2c1O [Compound 1, Nepodin] | 240 ^a min | 0.94 ± 0.24 |  | ACE inhibitory activity [3]: the highest compared with other isolated compounds |
| Cc1cc(O)c2c(c1)C(=O)c1cccc(O)c1C2=O [Compound 2, chrysophanol] | 180 ^b min |  | significantly (P < 0.05) decreased lag phase |  |
| COc1cc(O)c2c(c1)C(=O)c1cc(C)cc(O)c1C2=O [Compound 3, physcion] | 180 ^b min |  | significantly (P < 0.05) decreased lag phase |  |
| CC[C@H](CC[C@@H](C)[C@H]1CC[C@H]2[C@@H]3CC=C4C[C@@H](O)CC[C@]4(C)[C@H]3CC[C@]12C)C(C)C [Compound 4, β-sitosterol] | 60 ^c min | 3.05 ± 0.47 | significantly (P < 0.05) decreased lag phase | Td (min), doubling time [1, 7]: 39.71 min; Prebiotic activity score (Pscore) [4]: about 3.02 ± 0.48 |
| Cc1cc(O)c2c(c1)C(=O)c1cc(O)cc(O)c1C2=O [Compound 5, emodin] | 240 ^a min | 1.14 ± 0.20 |  | ACE inhibitory activity [3]: the lowest inhibitory activity of ACE compared with other compounds |
| CC[C@@H](CCC(C)C1CCC2C3CC=C4C[C@@H](O[C@@H]5O[C@H](CO)[C@@H](O)[C@H](O)[C@H]5O)CC[C@]4(C)C3CC[C@]12C)C(C)C (stereo partly drawn) [Compound 6, β-sitosterol 3-O-β-D-glucoside] | 180 ^b min |  | significantly (P < 0.05) decreased lag phase |  |
| CC(=O)c1c(C)cc2cccc(O[C@@H]3O[C@H](CO)[C@@H](O)[C@H](O)[C@H]3O)c2c1O [Compound 7, 6-methyl-7-acetyl-1,8-dihydroxy naphthalene-1-O-β-D-glucoside] | 180 ^b min |  | significantly (P < 0.05) decreased lag phase |  |
| CCO[C@@H]1O[C@H](CO)[C@@H](O)[C@H](O)[C@H]1O [Compound 8, ethyl β-D-glucopyranoside] | 180 ^b min |  | significantly (P < 0.05) decreased lag phase |  |
| CC(C)CC(=O)N[C@H](C(=O)N[C@H](C(=O)N[C@@H](CC(C)C)[C@@H](O)CC(=O)N[C@@H](C)C(=O)N[C@@H](CC(C)C)[C@@H](O)CC(=O)O)C(C)C)C(C)C [Pepstatin, Pepstatin A] (Isovaleryl-VV[Sta]A[Sta]-OH) |  |  |  | Inhibition of pepsin (protease) activity [5]: inhibitory activity greater than for any extracts or isolated compounds |
| C[C@H]1O[C@H](O[C@H]2[C@H](O)[C@@H](O)[C@@H](O[C@H]3[C@H](O)[C@@H](O)C(O)O[C@@H]3CO)O[C@@H]2CO)[C@H](O)[C@@H](O)[C@@H]1N[C@H]1C=C(CO)[C@@H](O)[C@H](O)[C@H]1O (some centres unmarked) [acarbose, Acarbose] |  |  |  | Inhibition of α-amylase activity [6]: inhibition was greater than for either extracts |
